“Also recorded” adds a separate entry of the source.
Experiments:
bronchial rings = details: Montelukast 1 μM, in vitro, FIG. 12
Paw mouse edema = details: 0.3 mg/kg intraperitoneal, 30 minutes before intraplantar carrageenin; FIG. 13
IgE = details: 0.3 mg/Kg; FIG. 18-A
Method: (§1) Mouse model of asthma. Female BALB/c mice (8 weeks: Charles River) were sensitized through subcutaneous administration of Ovalbumin (100 μg dissolved in 400 μl of AlOH3 13.5 mg/ml) on days 0 and 8, on the twenty-first day the mice were stimulated by aerosolic administration of Ovalbumin (3% for twenty minutes). The mice were sacrificed after 48 hours and the bronchi used for the evaluation of bronchial reactivity at carbachol and salbutamol. The drugs were administered intraperitoneally prior to each exposure to the allergen. […] Pulmonary tissues were harvested and used for dosage of cytokines such as IL-4 and IL-13. In addition plasma levels of IgE were measured.

[1] = test system: bronchial hyperreactivity
Method: as §1

SMILES | effect of Montelukast preincubation on the bronchodilating response of Formoterol (bronchial rings) | anti-inflammatory effect (Paw mouse edema) | IgE plasma levels (IgE) | therapeutic efficacy in controlling the development of hyperreactivity to carbachol induced by sensitization ([1]; salt […] vs Formoterol 0.3 mg/kg and Montelukast 0.3 mg/kg (almost double molar dose), FIG. 16) | therapeutic efficacy in controlling the airway dysfunction induced by sensitization ([1]; salt at halved molar dose respect to single drugs)
CC(C)(O)c1ccccc1CC[C@@H](SCC1(CC(=O)O)CC1)c1cccc(/C=C/c2ccc3ccc(Cl)cc3n2)c1 [Montelukast, (R,E)-2-(1-((1-(3-(2-(7-Chloroquinolin-2-yl)vinyl)phenyl)-3-(2-(2-hydroxypropan-2-yl)phenyl)propylthio)-methyl)cyclopropyl)acetic acid] | does not alter the bronchodilating response of the Formoterol, preserves its efficacy | induces an anti-inflammatory effect | unaffected | – | –
CC(C)(O)c1ccccc1CCC(SCC1(CC(=O)O)CC1)c1cccc(C=Cc2ccc3ccc(Cl)cc3n2)c1.COc1ccc(CC(C)NCC(O)c2ccc(O)c(NC=O)c2)cc1 (centres unmarked) [Montelukast formoterol salt, N-(2-(3-formamido-4-hydroxyphenyl)-2-hydroxyethyl)-1-(4-methoxy-phenyl)propan-2-aminium-2-(1-(((1-(3-(2-(7-chloroquinolin-2-yl)vinyl)-phenyl)-3-(2-(2-hydroxypropan-2-yl)phenyl)propyl)thio-)methyl)cyclopropyl)acetate] | – | – | – | significantly higher than the parent drugs Formoterol and Montelukast | significantly higher than Formoterol and Montelukast; also recorded: more efficiently reverses both airway effects

From patent US20220218690A1, “MONTELUKAST SALTS AND PHARMACEUTICAL COMPOSITIONS CONTAINING THE SAME” (GENETIC S.P.A., priority 2019, published 2022)
